Data set [1] in a line: Metabolic stability in cynomolgus monkey liver microsomes assessed as intrinsic clearance at 1 uM by LC/MS/MS analysis. Format: ADME, Macaca fascicularis, Microsome. Particulars: read-out: CLH (converted).
Data set [2] in a line: AUC (0 to 24 hrs) in cynomolgus monkey at 5 mg/kg, po measured after 24 hrs by LC/MS/MS analysis. It is filed as ADME, organism-based, Macaca fascicularis. The settings on record: in vivo.
Data set [3] is described as follows: Half-life in cynomolgus monkey at 5 mg/kg, po measured after 24 hrs by LC/MS/MS analysis. Format: ADME, organism-based, Macaca fascicularis. Particulars: in vivo.
Data set [4] can be described thus: Half-life in male Sprague-Dawley rat at 5 mg/kg, po measured after 24 hrs by LC/MS/MS analysis. Particulars: in vivo. It is filed as ADME, organism-based.
Data set [5] addresses T1, Lysophosphatidic acid receptor 1 (Homo sapiens, UniProt Q92633). Nature of the data set: Antagonist activity at LPA1 receptor in human TWNT-4 cells pre-incubated for 1 hr followed by LPA stimulation and measured after 30 min in presence of 4% human serum albumin by MRTF-A assay. Format: cell-based.
Data set [6] addresses T2, Lysophosphatidic acid receptor 3 (Homo sapiens, UniProt Q9UBY5).
T2 sequence (Q9UBY5 whole entry): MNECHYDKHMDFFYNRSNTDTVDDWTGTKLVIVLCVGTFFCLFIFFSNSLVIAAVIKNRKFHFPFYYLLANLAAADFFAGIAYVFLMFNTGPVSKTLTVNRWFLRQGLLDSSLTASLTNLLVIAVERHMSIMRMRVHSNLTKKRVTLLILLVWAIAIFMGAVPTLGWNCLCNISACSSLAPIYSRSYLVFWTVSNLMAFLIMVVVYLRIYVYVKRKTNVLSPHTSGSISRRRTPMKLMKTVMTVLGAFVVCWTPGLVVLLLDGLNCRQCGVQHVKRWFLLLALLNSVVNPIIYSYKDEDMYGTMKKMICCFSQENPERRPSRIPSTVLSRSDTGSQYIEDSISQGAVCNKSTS
Put plainly: Antagonist activity at human LPA3 receptor overexpressed in CHO cells pre-incubated for 1 hr followed by LPA addition by fluorescence based FLIPR calcium assay. Format: functional, cell-based.

The target of data set [7] is T1, Lysophosphatidic acid receptor 1. Put plainly: Displacement of [3H]LPA from human LPA1 receptor overexpressed in CHO cell membrane assessed as inhibition constant incubated for 90 min by competitive radioligand binding assay. It is filed as cell membranes.
For data set [8] the target is unchanged. Put plainly: Antagonist activity at human LPA1 receptor expressed in HEK293 cells assessed as beta-arrestin2 effector recruitment incubated for 10 mins by BRET assay. It is filed as functional, cell-based. (In general: In BRET a luciferase serves as donor, and the signal depends on an acceptor being close.)
A short description of data set [9]: Apparent permeability from apical to basolateral side in human Caco-2 cells at 10 uM. Format: ADME, cell-based.
Data set [10] has as its system P-gp (human). Nature of the data set: Apparent permeability from apical to basolateral side of human P-gp transfected MDCK cells measured after 20 min by LC/MS/MS analysis. Format: ADME, cell-based, Canis lupus familiaris. The settings on record: dog, MDCK-MDR1.
For data set [11], the target named is Cytochrome P450 3A4 (Homo sapiens, UniProt P08684). Nature of the data set: Inhibition of CYP3A4 (unknown origin) using testosterone as substrate. It is filed as ADME.
Sequence of Cytochrome P450 3A4 (P08684 whole entry): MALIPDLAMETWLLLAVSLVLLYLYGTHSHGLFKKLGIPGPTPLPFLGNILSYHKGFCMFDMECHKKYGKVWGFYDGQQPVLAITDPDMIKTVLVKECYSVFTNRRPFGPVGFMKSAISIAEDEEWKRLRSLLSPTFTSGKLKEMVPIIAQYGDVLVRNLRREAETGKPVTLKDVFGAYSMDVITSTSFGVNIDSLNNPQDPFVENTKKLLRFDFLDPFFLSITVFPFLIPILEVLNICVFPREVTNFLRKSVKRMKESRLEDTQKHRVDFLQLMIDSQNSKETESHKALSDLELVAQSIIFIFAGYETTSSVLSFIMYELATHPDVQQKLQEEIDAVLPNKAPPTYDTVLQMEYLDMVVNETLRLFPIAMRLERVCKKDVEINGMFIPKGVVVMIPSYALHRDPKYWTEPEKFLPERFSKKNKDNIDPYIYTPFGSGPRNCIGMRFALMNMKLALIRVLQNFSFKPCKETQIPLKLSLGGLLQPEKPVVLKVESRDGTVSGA
Data set [12] can be described thus: Toxicity in Beagle dog CNS at 60 mg/kg/day, po measured after 7 days by radiotelemetry. Particulars: in vivo, 168 h, time 7 day. It is filed as organism-based, Canis lupus familiaris.
A short description of data set [13]: Toxicity in Beagle dog CNS at 10 mg/kg/day, po measured after 28 days by radiotelemetry. It is filed as organism-based, Canis lupus familiaris. The settings on record: in vivo, 672 h, time 28 day.
The nature of data set [14]: Toxicity in Beagle dog CNS at 30 mg/kg/day, po measured after 28 days by radiotelemetry. It is filed as organism-based, Canis lupus familiaris. The settings on record: in vivo, 672 h, time 28 day.

T1 sequence (Q92633 whole entry): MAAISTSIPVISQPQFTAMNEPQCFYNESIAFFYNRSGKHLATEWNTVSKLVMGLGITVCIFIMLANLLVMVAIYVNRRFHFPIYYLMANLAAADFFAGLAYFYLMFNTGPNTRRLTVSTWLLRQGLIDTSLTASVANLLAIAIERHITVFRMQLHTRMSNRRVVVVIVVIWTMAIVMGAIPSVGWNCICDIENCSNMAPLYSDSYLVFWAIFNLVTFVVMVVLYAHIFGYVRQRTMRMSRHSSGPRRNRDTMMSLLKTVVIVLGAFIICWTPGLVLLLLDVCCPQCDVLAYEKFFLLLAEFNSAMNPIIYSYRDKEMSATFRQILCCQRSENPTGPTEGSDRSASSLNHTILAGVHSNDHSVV

Usually AUC(0-t) stands for exposure summed from dosing to a finite time, without extrapolation to infinity. As usually defined, the half-life is the time in which the quantity being followed falls by half. What is called EC50 is the concentration at which the effect is half-maximal. In general, Ki refers to a measure of affinity in units of concentration, obtained from inhibition or displacement. For orientation: Papp A→B means the apparent permeability from the apical to the basolateral side of a cell layer. In the case of `C[C@@H](OC(=O)Nc1c(-c2ccc(NC(=O)c3cnc(C(F)(F)F)nc3)cn2)nnn1C)c1cc(F)cnc1F`, the CLint scaled at 1 µM in data set [1] is 7.5 mL/min/kg. Further, the AUC(0-t) at 24 h in data set [2] turned out to be 8.9 µM·h. The half-life in [3] and in data set [4] was 3.9 h each time. Moreover, the EC50 in data set [5] was 34 nM; in [6], over 10000 nM; in data set [8] it was 134 nM. For the same compound, in data set [7], the Ki was found to be 60 nM. For the same compound, in [9], the Papp A→B at 10 µM amounted to 0.4 ×10⁻⁶ cm/s. The Papp A→B at 20 min in data set [10] stood at 0.3 ×10⁻⁶ cm/s. Also, the “inhibition (INH)” value in [11] is “Time-dependent-effect”. Further, the Activity result in data set [12], in [13] and in [14] was “Non-toxic” in each case.

These data come from ChEMBL document CHEMBL6103545, “Discovery of GS-2278, a Potent and Selective LPAR1 Antagonist for the Treatment of Idiopathic Pulmonary Fibrosis” (J Med Chem, 2025).
